Columns and labels:
Assay in all cases: KINOMEscan
Assay type in all cases: binding
Conditions in all cases: 1 μM of compound 4; read-out: POC
PRKCH = PRKCH (Homo sapiens, UniProt P24723)
KIT(D816H) = KIT(D816H) (Homo sapiens, UniProt P10721, D816H)
TAK1 = biological target: T1, TAK1 (Homo sapiens, UniProt O43318)
T1 construct: purchased Eurofins DiscoverX Corporation

PRKCI = PRKCI (Homo sapiens, UniProt P41743)
RIOK3 = biological target: T2, RIOK3 (Homo sapiens, UniProt O14730)
T2 construct: purchased Eurofins DiscoverX Corporation (KINOMEscan screening service)

PIM1 = PIM1 (Homo sapiens, UniProt P11309)
SLK = biological target: T3, SLK (Homo sapiens, UniProt Q9H2G2)
T3 construct: purchased Eurofins DiscoverX (KINOMEscan service)

BRAF(V600E) = BRAF(V600E) (Homo sapiens, UniProt P15056, V600E)
SRPK1 = biological target: T4, SRPK1 (Homo sapiens, UniProt Q96SB4)
T4 construct: purchased Eurofins DiscoverX (KINOMEscan service)

PRKCD = PRKCD (Homo sapiens, UniProt Q05655)
Chain of PRKCD (Q05655 whole entry): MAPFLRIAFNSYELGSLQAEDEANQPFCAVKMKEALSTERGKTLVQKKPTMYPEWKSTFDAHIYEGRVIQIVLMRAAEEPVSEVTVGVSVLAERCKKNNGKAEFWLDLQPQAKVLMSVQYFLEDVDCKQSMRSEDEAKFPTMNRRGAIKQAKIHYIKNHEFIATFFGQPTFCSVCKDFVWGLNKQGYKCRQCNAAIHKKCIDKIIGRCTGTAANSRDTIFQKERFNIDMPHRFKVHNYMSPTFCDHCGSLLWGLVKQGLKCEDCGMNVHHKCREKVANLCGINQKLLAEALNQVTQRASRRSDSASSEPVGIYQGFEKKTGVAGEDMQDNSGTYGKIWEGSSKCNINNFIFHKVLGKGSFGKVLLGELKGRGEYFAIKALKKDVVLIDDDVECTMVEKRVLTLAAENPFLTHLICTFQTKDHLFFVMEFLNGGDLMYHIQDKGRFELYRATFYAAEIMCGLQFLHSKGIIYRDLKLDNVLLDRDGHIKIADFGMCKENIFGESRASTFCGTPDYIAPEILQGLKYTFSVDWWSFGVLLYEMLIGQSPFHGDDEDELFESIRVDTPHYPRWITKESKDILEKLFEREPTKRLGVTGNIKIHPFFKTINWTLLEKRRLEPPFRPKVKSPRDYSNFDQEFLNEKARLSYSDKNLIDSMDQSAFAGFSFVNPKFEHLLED

TESK1 = biological target: T5, TESK1 (Homo sapiens, UniProt Q15569)
T5 construct: purchased Eurofins DiscoverX Corporation

SGK3 = biological target: T6, SGK3 (Homo sapiens, UniProt Q96BR1)
T6 construct: purchased Eurofins DiscoverX (KINOMEscan service)
T6 sequence (Q96BR1 whole entry): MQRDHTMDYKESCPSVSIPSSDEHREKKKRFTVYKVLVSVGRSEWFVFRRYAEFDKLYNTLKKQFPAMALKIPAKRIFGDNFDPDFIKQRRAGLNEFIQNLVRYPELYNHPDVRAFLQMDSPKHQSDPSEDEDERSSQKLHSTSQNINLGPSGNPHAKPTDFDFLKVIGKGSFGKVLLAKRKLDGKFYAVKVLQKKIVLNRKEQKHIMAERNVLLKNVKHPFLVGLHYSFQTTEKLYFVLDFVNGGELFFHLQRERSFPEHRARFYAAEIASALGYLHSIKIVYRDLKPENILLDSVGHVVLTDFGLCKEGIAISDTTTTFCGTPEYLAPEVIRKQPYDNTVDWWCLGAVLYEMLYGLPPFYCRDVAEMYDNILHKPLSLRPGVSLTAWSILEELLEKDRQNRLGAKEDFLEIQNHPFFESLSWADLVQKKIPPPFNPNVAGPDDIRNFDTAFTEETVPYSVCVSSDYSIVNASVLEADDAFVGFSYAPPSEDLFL

MYO3A = MYO3A (Homo sapiens, UniProt Q8NEV4)
HIPK1 = biological target: T7, HIPK1 (Homo sapiens, UniProt Q86Z02)
T7 construct: purchased Eurofins DiscoverX Corporation

DCAMKL3 = DCAMKL3 (Homo sapiens, UniProt Q9C098)
ROS1 = biological target: T8, ROS1 (Homo sapiens, UniProt P08922)
T8 construct: purchased Eurofins DiscoverX Corporation (KINOMEscan screening service)

FLT3(D835H) = biological target: T9, FLT3(D835H) (Homo sapiens, UniProt P36888, D835H)
T9 construct: purchased Eurofins DiscoverX Corporation

STK39 = biological target: T10, STK39 (Homo sapiens, UniProt Q9UEW8)
T10 construct: purchased Eurofins DiscoverX (KINOMEscan service)

VPS34 = biological target: T11, VPS34 (Homo sapiens, UniProt Q8NEB9)
T11 construct: purchased Eurofins DiscoverX

PIK3CG = PIK3CG (Homo sapiens, UniProt P48736)
CAMKK2 = CAMKK2 (Homo sapiens, UniProt Q96RR4)
FLT3(D835V) = biological target: T12, FLT3(D835V) (Homo sapiens, UniProt P36888, D835V)
T12 construct: purchased Eurofins DiscoverX Corporation

FGFR1 = biological target: T13, FGFR1 (Homo sapiens, UniProt P11362)
T13 construct: purchased Eurofins DiscoverX Corporation

ACVR2A = ACVR2A (Homo sapiens, UniProt P27037)
WEE1 = biological target: T14, WEE1 (Homo sapiens, UniProt P30291)
T14 construct: purchased Eurofins DiscoverX

PRKD2 = PRKD2 (Homo sapiens, UniProt Q9BZL6)
WEE2 = biological target: T15, WEE2 (Homo sapiens, UniProt P0C1S8)
T15 construct: purchased Eurofins DiscoverX

WNK4 = biological target: T16, WNK4 (Homo sapiens, UniProt Q96J92)
T16 construct: purchased Eurofins DiscoverX

PDPK1 = biological target: T17, PDPK1 (Homo sapiens, UniProt O15530)
T17 construct: purchased Eurofins DiscoverX Corporation (KINOMEscan)

EPHA5 = biological target: T18, EPHA5 (Homo sapiens, UniProt P54756)
T18 construct: purchased Eurofins DiscoverX (KINOMEscan service)
T18 sequence (P54756 25-1037): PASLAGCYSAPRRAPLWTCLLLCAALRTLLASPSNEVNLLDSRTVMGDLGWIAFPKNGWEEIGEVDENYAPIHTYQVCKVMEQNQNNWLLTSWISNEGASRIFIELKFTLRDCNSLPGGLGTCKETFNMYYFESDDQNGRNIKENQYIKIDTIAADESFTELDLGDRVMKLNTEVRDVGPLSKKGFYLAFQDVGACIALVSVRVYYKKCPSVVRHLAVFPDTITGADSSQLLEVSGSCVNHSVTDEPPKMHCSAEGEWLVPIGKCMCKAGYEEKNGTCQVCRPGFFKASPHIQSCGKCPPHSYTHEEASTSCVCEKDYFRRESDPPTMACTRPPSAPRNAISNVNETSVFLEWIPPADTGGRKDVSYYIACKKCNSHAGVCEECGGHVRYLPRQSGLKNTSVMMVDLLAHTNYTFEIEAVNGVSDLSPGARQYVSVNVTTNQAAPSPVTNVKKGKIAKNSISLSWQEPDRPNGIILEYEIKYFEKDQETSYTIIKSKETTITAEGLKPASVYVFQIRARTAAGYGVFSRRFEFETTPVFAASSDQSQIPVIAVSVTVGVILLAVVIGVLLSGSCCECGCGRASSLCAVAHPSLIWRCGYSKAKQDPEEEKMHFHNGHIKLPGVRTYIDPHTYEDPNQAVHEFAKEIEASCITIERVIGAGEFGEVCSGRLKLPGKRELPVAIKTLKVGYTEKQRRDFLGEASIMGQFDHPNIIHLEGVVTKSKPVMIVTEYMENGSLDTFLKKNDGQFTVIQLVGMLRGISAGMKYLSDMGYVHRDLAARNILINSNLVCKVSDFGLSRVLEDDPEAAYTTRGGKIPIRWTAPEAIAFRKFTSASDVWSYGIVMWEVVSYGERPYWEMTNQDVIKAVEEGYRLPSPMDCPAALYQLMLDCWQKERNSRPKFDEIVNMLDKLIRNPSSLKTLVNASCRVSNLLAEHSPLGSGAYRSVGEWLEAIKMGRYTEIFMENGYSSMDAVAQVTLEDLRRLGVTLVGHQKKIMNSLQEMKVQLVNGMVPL

MET = MET (Homo sapiens, UniProt P08581)
EPHB4 = biological target: T19, EPHB4 (Homo sapiens, UniProt P54760)
T19 construct: purchased Eurofins DiscoverX (KINOMEscan service)
T19 sequence (P54760 16-987): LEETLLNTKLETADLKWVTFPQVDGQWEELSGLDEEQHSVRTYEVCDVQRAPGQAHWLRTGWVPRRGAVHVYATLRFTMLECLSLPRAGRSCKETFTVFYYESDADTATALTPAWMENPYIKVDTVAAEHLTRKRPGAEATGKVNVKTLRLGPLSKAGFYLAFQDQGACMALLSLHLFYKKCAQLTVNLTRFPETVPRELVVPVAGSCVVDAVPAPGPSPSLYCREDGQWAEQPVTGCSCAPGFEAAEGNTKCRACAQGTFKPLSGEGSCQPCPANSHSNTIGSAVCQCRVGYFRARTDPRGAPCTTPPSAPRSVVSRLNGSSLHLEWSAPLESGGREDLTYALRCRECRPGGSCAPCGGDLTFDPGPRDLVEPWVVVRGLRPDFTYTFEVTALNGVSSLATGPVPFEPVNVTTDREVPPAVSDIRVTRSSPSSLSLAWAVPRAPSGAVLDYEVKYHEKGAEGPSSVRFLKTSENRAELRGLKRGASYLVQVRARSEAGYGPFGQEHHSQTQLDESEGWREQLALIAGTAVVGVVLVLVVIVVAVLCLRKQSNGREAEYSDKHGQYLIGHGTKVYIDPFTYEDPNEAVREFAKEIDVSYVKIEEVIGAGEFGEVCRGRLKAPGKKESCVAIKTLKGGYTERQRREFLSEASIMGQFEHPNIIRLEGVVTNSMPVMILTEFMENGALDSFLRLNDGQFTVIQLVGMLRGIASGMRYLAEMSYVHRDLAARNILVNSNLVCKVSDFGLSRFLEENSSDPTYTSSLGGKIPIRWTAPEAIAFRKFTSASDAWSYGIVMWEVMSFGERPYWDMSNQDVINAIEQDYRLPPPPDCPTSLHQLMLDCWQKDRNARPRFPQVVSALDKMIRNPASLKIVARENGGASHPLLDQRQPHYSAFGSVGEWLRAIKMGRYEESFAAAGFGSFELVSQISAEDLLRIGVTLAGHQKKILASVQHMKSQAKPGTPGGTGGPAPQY

PIK3CA(E545A) = PIK3CA(E545A) (Homo sapiens, UniProt P42336, E545A)
LTK = LTK (Homo sapiens, UniProt P29376)
SNARK = biological target: T20, SNARK (Homo sapiens, UniProt Q9H093)
T20 construct: purchased Eurofins DiscoverX (KINOMEscan service)
T20 sequence (Q9H093 whole entry): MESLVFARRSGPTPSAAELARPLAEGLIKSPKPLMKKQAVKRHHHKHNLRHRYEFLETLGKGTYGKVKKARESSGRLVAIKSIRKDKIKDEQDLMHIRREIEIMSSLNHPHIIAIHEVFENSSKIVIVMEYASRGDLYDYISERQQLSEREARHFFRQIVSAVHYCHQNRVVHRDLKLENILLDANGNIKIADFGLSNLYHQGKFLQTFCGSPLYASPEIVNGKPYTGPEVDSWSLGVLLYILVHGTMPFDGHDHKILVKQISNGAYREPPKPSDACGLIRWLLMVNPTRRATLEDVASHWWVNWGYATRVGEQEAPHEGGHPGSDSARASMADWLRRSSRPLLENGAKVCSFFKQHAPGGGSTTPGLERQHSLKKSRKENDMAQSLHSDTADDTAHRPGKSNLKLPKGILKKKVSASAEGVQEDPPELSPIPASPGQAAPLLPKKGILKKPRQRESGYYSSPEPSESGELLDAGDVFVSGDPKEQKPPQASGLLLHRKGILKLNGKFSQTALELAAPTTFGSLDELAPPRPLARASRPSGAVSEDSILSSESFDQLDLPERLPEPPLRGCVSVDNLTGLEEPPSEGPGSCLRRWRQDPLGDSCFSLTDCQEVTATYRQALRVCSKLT

TGFBR2 = biological target: T21, TGFBR2 (Homo sapiens, UniProt P37173)
T21 construct: purchased Eurofins DiscoverX Corporation

RET = biological target: T22, RET (Homo sapiens, UniProt P07949)
T22 construct: purchased Eurofins DiscoverX Corporation (KINOMEscan screening service)
T22 sequence (P07949 29-1114): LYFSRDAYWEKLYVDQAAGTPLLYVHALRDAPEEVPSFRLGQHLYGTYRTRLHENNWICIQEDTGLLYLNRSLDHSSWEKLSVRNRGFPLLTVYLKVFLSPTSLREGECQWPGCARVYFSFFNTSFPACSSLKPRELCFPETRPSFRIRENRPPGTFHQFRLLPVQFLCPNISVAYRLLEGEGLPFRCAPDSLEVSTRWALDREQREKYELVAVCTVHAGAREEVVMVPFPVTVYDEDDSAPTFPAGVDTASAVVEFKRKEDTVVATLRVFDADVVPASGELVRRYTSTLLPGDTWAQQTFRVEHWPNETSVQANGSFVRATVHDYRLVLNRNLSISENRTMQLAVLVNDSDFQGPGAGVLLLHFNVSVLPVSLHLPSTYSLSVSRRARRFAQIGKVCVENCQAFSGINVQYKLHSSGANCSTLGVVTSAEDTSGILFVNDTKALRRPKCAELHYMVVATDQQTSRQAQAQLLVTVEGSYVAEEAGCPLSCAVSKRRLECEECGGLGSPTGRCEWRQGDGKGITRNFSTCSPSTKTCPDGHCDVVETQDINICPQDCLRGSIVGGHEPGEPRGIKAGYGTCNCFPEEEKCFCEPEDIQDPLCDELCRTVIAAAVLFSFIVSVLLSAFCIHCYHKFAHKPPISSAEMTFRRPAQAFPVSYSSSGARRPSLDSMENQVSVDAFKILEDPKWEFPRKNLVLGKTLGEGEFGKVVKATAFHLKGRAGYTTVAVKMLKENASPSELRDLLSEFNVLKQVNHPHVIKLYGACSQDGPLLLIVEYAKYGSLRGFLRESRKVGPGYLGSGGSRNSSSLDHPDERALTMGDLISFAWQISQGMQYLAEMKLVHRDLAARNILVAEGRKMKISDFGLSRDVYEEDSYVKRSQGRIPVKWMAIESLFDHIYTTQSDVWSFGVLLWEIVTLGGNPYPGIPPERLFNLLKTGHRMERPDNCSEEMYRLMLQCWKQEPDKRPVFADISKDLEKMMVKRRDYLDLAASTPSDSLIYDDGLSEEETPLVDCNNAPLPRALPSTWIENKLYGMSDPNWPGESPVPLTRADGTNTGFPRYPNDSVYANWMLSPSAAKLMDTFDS

PIK3CA(M1043I) = PIK3CA(M1043I) (Homo sapiens, UniProt P42336, M1043I)
GRK4 = biological target: T23, GRK4 (Homo sapiens, UniProt P32298)
T23 construct: purchased Eurofins DiscoverX Corporation

## C=CC(=O)Nc1ccc(OC)c(Nc2cc(-c3[nH]c(CC)nc3-c3cccc(NC(=O)c4cccc5c4NC(=O)c4ccccc4N5)c3)ccn2)c1 [Compound 4, N-(3-(5-(2-((5-Acrylamido-2-methoxyphenyl)amino)pyridin-4-yl)-2-ethyl-1H-imidazol-4-yl)phenyl)-11-oxo-10,11-dihydro-5H-dibenzo[b,e][1,4]diazepine-9-carboxamide]
PRKCH
  remaining binding at 1 µM: 69%
KIT(D816H)
  remaining binding at 1 µM: 39%
TAK1
  remaining binding at 1 µM: 95%
PRKCI
  remaining binding at 1 µM: 100%
RIOK3
  remaining binding at 1 µM: 100%
PIM1
  remaining binding at 1 µM: 94%
SLK
  remaining binding at 1 µM: 100%
BRAF(V600E)
  remaining binding at 1 µM: 100%
SRPK1
  remaining binding at 1 µM: 100%
PRKCD
  remaining binding at 1 µM: 55%
TESK1
  remaining binding at 1 µM: 94%
SGK3
  remaining binding at 1 µM: 90%
MYO3A
  remaining binding at 1 µM: 14%
HIPK1
  remaining binding at 1 µM: 51%
DCAMKL3
  remaining binding at 1 µM: 86%
ROS1
  remaining binding at 1 µM: 80%
FLT3(D835H)
  remaining binding at 1 µM: 92%
STK39
  remaining binding at 1 µM: 85%
VPS34
  remaining binding at 1 µM: 84%
PIK3CG
  remaining binding at 1 µM: 65%
CAMKK2
  remaining binding at 1 µM: 95%
FLT3(D835V)
  remaining binding at 1 µM: 100%
FGFR1
  remaining binding at 1 µM: 86%
ACVR2A
  remaining binding at 1 µM: 77%
WEE1
  remaining binding at 1 µM: 85%
PRKD2
  remaining binding at 1 µM: 62%
WEE2
  remaining binding at 1 µM: 98%
WNK4
  remaining binding at 1 µM: 85%
PDPK1
  remaining binding at 1 µM: 84%
EPHA5
  remaining binding at 1 µM: 100%
MET
  remaining binding at 1 µM: 69%
EPHB4
  remaining binding at 1 µM: 100%
PIK3CA(E545A)
  remaining binding at 1 µM: 100%
LTK
  remaining binding at 1 µM: 48%
SNARK
  remaining binding at 1 µM: 100%
TGFBR2
  remaining binding at 1 µM: 75%
RET
  remaining binding at 1 µM: 99%
PIK3CA(M1043I)
  remaining binding at 1 µM: 55%
GRK4
  remaining binding at 1 µM: 100%

Source: patent publication US20260224588A1, “BENZODIAZEPINONE-DERIVED INHIBITORS OF EGFR AND HER2” (The Research Foundation for the State University of New York, priority 2023, published 2026)
